Experimental data taken from PubChem BioAssay AID1963849 (Molecular Pharmacology Branch, DTP, NCI, 2024).

Tested on: 299254-011-R-J1-PDC complex spheroid viability
Assay: Anticancer human tumor 299254-011-R-J1-PDC patient-derived melanoma cell line growth inhibition [POLQ]
Settings: for IC50: curve of first compound; for viability, T/C: stronger effect = lower value
How it was run: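 Growth inhibition in 3D: complex spheroids (tumor PDC, HUVEC, MSC) treated with POLQ inhibitor combinations; where Cmax unknown, highest tested concentration 10 microM, except SN-38 at 1 microM.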

[1] = second compound 0.0316 µM, first compound 0.0316 µM
[2] = second compound 0.0316 µM, first compound 0.1 µM
[3] = second compound 0.0316 µM, first compound 0.316 µM
[4] = second compound 0.0316 µM, first compound 1 µM
[5] = second compound 0.0316 µM, first compound 3.16 µM
[6] = second compound 0.0316 µM, first compound 10 µM
[7] = second compound 0.1 µM, first compound 0.0316 µM
[8] = second compound 0.1 µM, first compound 0.1 µM
[9] = second compound 0.1 µM, first compound 0.316 µM
[10] = second compound 0.1 µM, first compound 1 µM
[11] = second compound 0.1 µM, first compound 3.16 µM
[12] = second compound 0.1 µM, first compound 10 µM
[13] = second compound 0.316 µM, first compound 0.0316 µM
[14] = second compound 0.316 µM, first compound 0.1 µM
[15] = second compound 0.316 µM, first compound 0.316 µM
[16] = second compound 0.316 µM, first compound 1 µM
[17] = second compound 0.316 µM, first compound 3.16 µM
[18] = second compound 0.316 µM, first compound 10 µM
[19] = second compound 1 µM, first compound 0.0316 µM
[20] = second compound 1 µM, first compound 0.1 µM
[21] = second compound 1 µM, first compound 0.316 µM
[22] = second compound 1 µM, first compound 1 µM
[23] = second compound 1 µM, first compound 3.16 µM
[24] = second compound 1 µM, first compound 10 µM
[25] = second compound 3.16 µM, first compound 0.0316 µM
[26] = second compound 3.16 µM, first compound 0.1 µM
[27] = second compound 3.16 µM, first compound 0.316 µM
[28] = second compound 3.16 µM, first compound 1 µM
[29] = second compound 3.16 µM, first compound 3.16 µM
[30] = second compound 3.16 µM, first compound 10 µM
[31] = second compound 10 µM, first compound 0.0316 µM
[32] = second compound 10 µM, first compound 0.1 µM
[33] = second compound 10 µM, first compound 0.316 µM
[34] = second compound 10 µM, first compound 1 µM
[35] = second compound 10 µM, first compound 3.16 µM
[36] = second compound 10 µM, first compound 10 µM
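Note: spheroids exposed to drugs for one week before measurement.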
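Throughout, for viability, T/C: percent viability relative to DMSO vehicle control taken as 100%.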

SMILES: C#Cc1c(F)ccc2cc(O)cc(-c3ncc4c(N5CC6CCC(C5)N6)nc(OCC56CCCN5CC(F)C6)nc4c3F)c12 (stereo unspecified) + Nc1ccc(C#CCN(C(=O)Cc2ncc(C(F)(F)F)cc2C(F)(F)F)c2ccc(F)cc2)nn1
- IC50 (second compound 0.0316 µM): > 10 µM
- IC50 (second compound 0.1 µM): > 10 µM
- IC50 (second compound 0.316 µM): > 10 µM
- IC50 (second compound 1 µM): > 10 µM
- IC50 (second compound 3.16 µM): > 10 µM
- IC50 (second compound 10 µM): > 10 µM
- viability, T/C [1]: 106%
- viability, T/C [2]: 108%
- viability, T/C [3]: 106%
- viability, T/C [4]: 112%
- viability, T/C [5]: 116%
- viability, T/C [6]: 82.1%
- viability, T/C [7]: 92.3%
- viability, T/C [8]: 109%
- viability, T/C [9]: 110%
- viability, T/C [10]: 104%
- viability, T/C [11]: 103%
- viability, T/C [12]: 90.2%
- viability, T/C [13]: 107%
- viability, T/C [14]: 103%
- viability, T/C [15]: 133%
- viability, T/C [16]: 104%
- viability, T/C [17]: 98%
- viability, T/C [18]: 92.4%
- viability, T/C [19]: 114%
- viability, T/C [20]: 102%
- viability, T/C [21]: 104%
- viability, T/C [22]: 136%
- viability, T/C [23]: 103%
- viability, T/C [24]: 103%
- viability, T/C [25]: 117%
- viability, T/C [26]: 118%
- viability, T/C [27]: 106%
- viability, T/C [28]: 128%
- viability, T/C [29]: 99.1%
- viability, T/C [30]: 86.6%
- viability, T/C [31]: 103%
- viability, T/C [32]: 89.5%
- viability, T/C [33]: 92.6%
- viability, T/C [34]: 128%
- viability, T/C [35]: 96.9%
- viability, T/C [36]: 68.6%

SMILES: CC1COCCN1c1cc(-c2ccnn2C)c2ccnc(-c3ccn[nH]3)c2n1 (stereo unspecified) + Nc1ccc(C#CCN(C(=O)Cc2ncc(C(F)(F)F)cc2C(F)(F)F)c2ccc(F)cc2)nn1
- IC50 (second compound 0.0316 µM): 0.311 µM
- IC50 (second compound 0.1 µM): 0.226 µM
- IC50 (second compound 0.316 µM): 0.295 µM
- IC50 (second compound 1 µM): 0.264 µM
- IC50 (second compound 3.16 µM): 0.179 µM
- IC50 (second compound 10 µM): 0.16 µM
- viability, T/C [1]: 87.8%
- viability, T/C [2]: 80.3%
- viability, T/C [3]: 43.7%
- viability, T/C [4]: 36.3%
- viability, T/C [5]: 22.3%
- viability, T/C [6]: 18.7%
- viability, T/C [7]: 102%
- viability, T/C [8]: 70.9%
- viability, T/C [9]: 41.9%
- viability, T/C [10]: 27.8%
- viability, T/C [11]: 23.2%
- viability, T/C [12]: 25.4%
- viability, T/C [13]: 102%
- viability, T/C [14]: 70.5%
- viability, T/C [15]: 50.4%
- viability, T/C [16]: 31.2%
- viability, T/C [17]: 28.1%
- viability, T/C [18]: 19.5%
- viability, T/C [19]: 88.7%
- viability, T/C [20]: 68.5%
- viability, T/C [21]: 43.8%
- viability, T/C [22]: 33.8%
- viability, T/C [23]: 31.2%
- viability, T/C [24]: 19.6%
- viability, T/C [25]: 84.7%
- viability, T/C [26]: 62.6%
- viability, T/C [27]: 36.3%
- viability, T/C [28]: 32.4%
- viability, T/C [29]: 19.9%
- viability, T/C [30]: 25.4%
- viability, T/C [31]: 82.5%
- viability, T/C [32]: 54.6%
- viability, T/C [33]: 42.6%
- viability, T/C [34]: 33.2%
- viability, T/C [35]: 20.7%
- viability, T/C [36]: 25.2%

SMILES: CCc1cc2c(N3CCc4c(cc(Cn5ccnc5)cc4-c4cn(C)nc4C(F)(F)F)C3=O)cc(C)nc2c(OC)n1 + Cc1cccc(N(C)C(=O)C2C(O)CCN2c2nc(C)cc(C(F)(F)F)c2C#N)c1
- IC50 (second compound 0.0316 µM): > 10 µM
- IC50 (second compound 0.1 µM): > 10 µM
- IC50 (second compound 0.316 µM): > 10 µM
- IC50 (second compound 1 µM): > 10 µM
- IC50 (second compound 3.16 µM): > 10 µM
- IC50 (second compound 10 µM): > 10 µM
- viability, T/C [1]: 96.3%
- viability, T/C [2]: 92.5%
- viability, T/C [3]: 96.6%
- viability, T/C [4]: 104%
- viability, T/C [5]: 94.8%
- viability, T/C [6]: 61.3%
- viability, T/C [7]: 109%
- viability, T/C [8]: 109%
- viability, T/C [9]: 90.3%
- viability, T/C [10]: 94.8%
- viability, T/C [11]: 80.9%
- viability, T/C [12]: 71.3%
- viability, T/C [13]: 108%
- viability, T/C [14]: 115%
- viability, T/C [15]: 121%
- viability, T/C [16]: 106%
- viability, T/C [17]: 87.9%
- viability, T/C [18]: 65.3%
- viability, T/C [19]: 105%
- viability, T/C [20]: 100%
- viability, T/C [21]: 99.7%
- viability, T/C [22]: 90.2%
- viability, T/C [23]: 88.3%
- viability, T/C [24]: 58.5%
- viability, T/C [25]: 117%
- viability, T/C [26]: 98.3%
- viability, T/C [27]: 95.3%
- viability, T/C [28]: 84.5%
- viability, T/C [29]: 80.2%
- viability, T/C [30]: 70.2%
- viability, T/C [31]: 109%
- viability, T/C [32]: 117%
- viability, T/C [33]: 106%
- viability, T/C [34]: 82.2%
- viability, T/C [35]: 77.8%
- viability, T/C [36]: 58.6%
